From paper PMC12175894 (Science Advances, 2025) come the findings set out here.

Entries after “also recorded” stand apart in the source; their conditions may differ. Some results are limits rather than exact numbers.

Data set [1] has as its target T1, 5-HT1AR wildtype (Homo sapiens, UniProt P08908).
T1 construct: host or cells: HEK293T, HEK293A, HEK293AΔGs, HEK293AΔGi/o, HEK293AΔARRB1/B2
T1 sequence (P08908 1-422): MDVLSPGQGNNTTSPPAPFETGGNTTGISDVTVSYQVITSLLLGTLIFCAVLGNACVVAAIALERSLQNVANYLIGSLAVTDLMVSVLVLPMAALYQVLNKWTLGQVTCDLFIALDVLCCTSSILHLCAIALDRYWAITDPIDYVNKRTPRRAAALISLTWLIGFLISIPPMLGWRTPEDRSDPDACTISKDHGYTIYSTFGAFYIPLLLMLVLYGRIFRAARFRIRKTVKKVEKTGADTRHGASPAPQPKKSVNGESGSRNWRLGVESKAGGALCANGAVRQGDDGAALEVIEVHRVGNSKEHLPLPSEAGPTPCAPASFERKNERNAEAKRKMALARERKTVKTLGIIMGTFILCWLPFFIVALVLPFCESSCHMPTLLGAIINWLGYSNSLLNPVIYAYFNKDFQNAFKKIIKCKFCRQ
Kind of data set: GloSensor inhibition of cAMP accumulation in HEK293AΔGs. In kind it is cell-based. A general note: Cyclic AMP is a second messenger, typically raised through Gs and lowered through Gi signalling.

For data set [2], the target named is T1, 5-HT1AR wildtype. Kind of data set: GloSensor cAMP accumulation in HEK293AΔGi/o. It counts as cell-based. The following applies: for Emax: read-out: Emax [% ± SEM], cAMP accumulation.
In data set [3] the target is T1, 5-HT1AR wildtype. The experiment in a line: β-arrestin 2 recruitment, enhanced bystander BRET in HEK293T with GRK2. It counts as cell-based. The settings on record: for Emax: HEK-293T, read-out: Emax [% ± SEM], β-arrestin 2 recruitment. In general terms: Arrestin recruitment assays detect the binding of arrestin to an activated receptor.
Another data set has as its target T2, 5-HT1AR wt (Homo sapiens, UniProt P08908).
T2 construct: host or cells: HEK293T, transient; membranes
T2 sequence (P08908 1-422): T1 sequence (P08908 1-422)
Kind of data set: Radioligand competition, displacement of [3H]WAY100635. It counts as binding. The following applies: fig. S1C, in words. A general note: Displacement assays read how much labelled ligand stays bound in the presence of the test substance.

A further data set has as its target T3, 5-HT1AR (Homo sapiens, UniProt P08908).
T3 sequence (P08908 1-422): T1 sequence (P08908 1-422)
Kind of data set: BRET-based cAMP assay (CAMYEL biosensor) in CHO-K1 cells. In kind it is cell-based. The following applies: inhibition of cAMP accumulation, CAMYEL, fig. S1C, in words.

In another data set the test system is male C56BL/6 mice. The experiment in a line: 52°C hot plate. In kind it is in vivo, mouse. The following applies: wild-type mice, 10 mg/kg.
The test system of another data set is 5-HT1AR KO mice. Kind of data set: 52°C hot plate in 5-HT1AR KO mice. It counts as in vivo, mouse. The following applies: 10 mg/kg.
Data set [4] is described as follows: Metabolic stability with rat liver microsomes. In kind it is in vitro ADME. The following applies: after 1 h incubation.
Data set [5] has as its target human WT 5-HT1AR with C-terminal ARMS2-PK2 (human) (UniProt P08908). The experiment in a line: split reporter.
Where [6] appears, read: read-out: Emax [% ± SEM], inhibition of cAMP accumulation.

With `CCN(CC)C(=O)N[C@H]1C=C2c3cccc4[nH]cc(c34)C[C@H]2N(C)C1` [(S)-(-)lisuride, (S)-(−)-lisuride], on 5-HT1AR wildtype [1] (HEK293AΔGs, wildtype, relative to serotonin), the “Emax [% ± SEM], inhibition of cAMP accumulation” value is on record as 68 ± 4%. For the same molecule, the “Emax [% ± SEM], cAMP accumulation” value at 5-HT1AR wildtype [2] (HEK293AΔGi/o, wildtype, relative to serotonin) amounted to 29 ± 4%. In addition, the “Emax [% ± SEM], β-arrestin 2 recruitment” value at 5-HT1AR wildtype [3] (HEK293T with GRK2, wildtype, relative to serotonin) came to 46 ± 3%.
Turning to `COc1ccccc1OCCCNCCCOc1ccc2c(c1)NC(=O)CO2` [TA12], the “5-HT1AR binding relative to ST171 (SAR study)” value at 5-HT1AR wt is reported as “reduced binding affinity; also recorded: attenuation of binding”. Further, the “potency and efficacy / receptor activation relative to ST171 (SAR study)” value at 5-HT1AR was “attenuation of binding and receptor activation”.
Take `CSc1ccccc1OCCNCCCOc1ccc2c(c1)NC(=O)CO2` [TA48]: the “potency and efficacy / receptor activation relative to ST171 (SAR study)” value on 5-HT1AR was “considerable reduction of potency and efficacy”.
Broadly, the Emax is the greatest response seen or fitted, relative to the assay's reference. Turning to `O=C1CCc2ccc(OCCCCN3CCN(c4cccc(Cl)c4Cl)CC3)cc2N1` [aripiprazole], the Emax on 5-HT1AR wildtype [1] (read-out: Emax [% ± SEM], inhibition of cAMP accumulation, HEK293AΔGs, wildtype, relative to serotonin) was 90 ± 9%; on 5-HT1AR wildtype [2], below 5%.
Take `O=C1CC2(CCCC2)CC(=O)N1CCCCN1CCN(c2ncccn2)CC1` [buspirone]: the maximal effect (Emax) at 5-HT1AR wildtype [1] (setting [6]) was 58 ± 1%; at 5-HT1AR wildtype [2] it was below 5%; at 5-HT1AR wildtype [3], below 5%.
For `CN1CC[C@]23c4c5ccc(O)c4O[C@H]2[C@@H](O)C=C[C@H]3[C@H]1C5` [morphine], the “response latency, 52°C hot plate” value in the data set on male C56BL/6 mice is reported as “significantly increased the response latency”. Also, the “response latency, hot plate in 5-HT1AR KO mice” value in the data set on 5-HT1AR KO mice was “significantly increased the response latency”.
`CCCN(CCc1cccs1)[C@H]1CCc2c(O)cccc2C1` [rotigotine, reference compound] yielded an intact substrate remaining in data set [4] below 15%.
The EC50 is the concentration that produces a half-maximal response. In the case of `O=C1Cc2cc(CCN3CCN(c4nsc5ccccc45)CC3)c(Cl)cc2N1` [ziprasidone], the “lower potency compared to ST171, Gi/o pathway” value on 5-HT1AR wildtype [1] (HEK293AΔGs) was “more than 70 fold”. Moreover, at 5-HT1AR wildtype [1] (HEK293AΔGs, wildtype, read-out: EC50 [nM ± SEM], inhibition of cAMP accumulation), the EC50 worked out at 370 ± 140 nM. In addition, the Emax on 5-HT1AR wildtype [1] (setting [6]) is 57 ± 7%; on 5-HT1AR wildtype [2] it was below 5%; on 5-HT1AR wildtype [3], below 5%.
For the molecule “β-arrestin 2 labeled with the enzyme acceptor (from UniProt P32121 1-409) (natural protein)”, in [5], the Emax of recruitment with ST171, elevated GRK2 (% of serotonin) stood at 15% and the Emax of recruitment with ST171, native GRK2 (% of serotonin) was below 5%.
